Molecules are shown by their SMILES.

For one test, the target named is T1, γ-secretase (Homo sapiens, UniProt P49768).
T1 construct: uses a HEK293 membrane fraction as a source of γ-secretase; endogenous in cells; host or cells: HEK293 (microsomal membrane fraction, solubilised in 0.25% CHAPSO)
The test is described as follows: in vitro γ-secretase assay (HEK293 membrane fraction, recombinant APP substrate, Abeta ELISA). To be noted: γ-secretase inhibition. Format: biochemical. An excerpt:
Description of γ-Secretase Assay
The activity of test compounds can be evaluated in assays which measure the proteolytic cleavage of suitable substrates by γ-secretase activity. These can be cellular assays where e.g., a substrate of the γ-secretase is fused in its cytoplasmic domain to a transcription factor. Cells are transfected with this fusion gene and a reporter gene, e.g., firefly luciferase, which expression is enhanced by the transcription factor. Cleavage of the fused substrate by γ-secretase will lead to expression of the reporter gene which can be monitored in appropriate assays. The γ-secretase activity can also be determined in cell-free in vitro asays where e.g., a cell lysate containing the γ-secretase complex is incubated with a suitable APP-derived substrate which is cleaved to the Abeta peptides. The amount of produced peptides can be determined with specific ELISA assays. Cell lines of neuronal origin secrete Abeta peptides which can be measured with the specific ELISA assay. Treatment with compounds which inhibit γ-secretase leads to a reduction of secreted Abeta thus providing a measure of inhibition.
The in vitro assay of γ-secretase activity uses a HEK293 membrane fraction as a source of γ-secretase and a recombinant APP substrate. Latter consist of the C-terminal 100 amino acids of human APP fused to a 6× Histidin tail for purification which is expressed in E. coli in a regulatable expression vector, e.g. pEt15. This recombinant protein corresponds to the truncated APP fragment which results after […] of the extracellular domain and which constitutes the γ-secretase substrate. […] Hek293 cells are mechanically disrupted and the microsomal fraction is isolated by differential centrifugation.
As for `COc1ccc(CN(C2CC(C(F)(F)F)CCNC2=O)S(=O)(=O)c2ccc(Cl)cc2)c(F)c1` (stereo not shown) [Example 198, 4-Chloro-N-(2-fluoro-4-methoxy-benzyl)-N-(2-oxo-5-trifluoromethyl-azepan-3-yl)-benzenesulfonamide], the half-maximal inhibitory concentration (IC50) was 290 nM. As to `O=C(O)c1ccc(CN(C2CC(C(F)(F)F)CCNC2=O)S(=O)(=O)c2ccc(Cl)cc2)c(F)c1` (stereo not shown) [Example 199, 4-{[(4-Chloro-benzenesulfonyl)-(2-oxo-5-trifluoromethyl-azepan-3-yl)-amino]-methyl}-3-fluoro-benzoic acid], the IC50 was found to be 20 nM. With `O=C(O)CCc1ccc(CN([C@@H]2CCCCNC2=O)S(=O)(=O)c2ccc(Cl)cc2)cc1` [Example 201, 3-(4-{[(4-Chloro-benzenesulfonyl)-((R)-2-oxo-azepan-3-yl)-amino]-methyl}-phenyl)-propionic acid], the half-maximal inhibitory concentration (IC50) came out at 20 nM. Take `O=C1NCCCC[C@H]1N(Cc1ccc(-c2ccno2)cc1)S(=O)(=O)c1ccc(Cl)cc1` [Example 208, 4-Chloro-N-(4-isoxazol-5-yl-benzyl)-N-((R)-2-oxo-azepan-3-yl)-benzenesulfonamide]: the IC50 came to 220 nM. On to `COc1ccc(CN([C@@H]2CCCCNC2=O)S(=O)(=O)c2ccc(Cl)cc2)c(F)c1F` [Example 211, 4-Chloro-N-(2,3-difluoro-4-methoxy-benzyl)-N-((R)-2-oxo-azepan-3-yl)-benzenesulfonamide], for which the IC50 was determined as 50 nM. The same measure, in the same setting: the same measure for `CC(C)(CC(=O)O)c1ccc(CN([C@@H]2CCCCNC2=O)S(=O)(=O)c2ccc(Cl)cc2)cc1` [Example 218, 3-(4-{[(4-Chloro-benzenesulfonyl)-((R)-2-oxo-azepan-3-yl)-amino]-methyl}-phenyl)-3-methyl-butyric acid]: 210 nM; for `CC(C)(Cc1ccc(CN([C@@H]2CCCCNC2=O)S(=O)(=O)c2ccc(Cl)cc2)cc1)C(=O)O` [Example 219, 3-(4-{[(4-Chloro-benzenesulfonyl)-((R)-2-oxo-azepan-3-yl)-amino]-methyl}-phenyl)-2,2-dimethyl-propionic acid]: 230 nM.

The same test, now with this note: γ-secretase inhibition, table head prints none.
As to `CC1(C)CCNC(=O)C(N(Cc2ccc(C(=O)NC3CC3)cc2)S(=O)(=O)c2ccc(Cl)cc2)C1` (stereo not shown) [Example 109, 4-{[(4-Chloro-benzenesulfonyl)-(5,5-dimethyl-2-oxo-azepan-3-yl)-amino]-methyl}-N-cyclopropyl-benzamide], the IC50 stood at 280 nM. In the case of `COc1ccc(CN(C2CC(C(C)C)CCNC2=O)S(=O)(=O)c2ccc(Cl)cc2)cc1` (stereo not shown) [Example 111, 4-Chloro-N-(5-isopropyl-2-oxo-azepan-3-yl)-N-(4-methoxy-benzyl)-benzenesulfonamide], the concentration for half-maximal inhibition (IC50) was found to be 8 nM. On to `O=C(NC1CC1)c1ccc(CN(C2CC(C(F)(F)F)CCNC2=O)S(=O)(=O)c2ccc(Cl)cc2)cc1` (stereo not shown) [Example 115, 4-{[(4-Chloro-benzenesulfonyl)-(2-oxo-5-trifluoromethyl-azepan-3-yl)-amino]-methyl}-N-cyclopropyl-benzamide], for which the half-maximal inhibitory concentration (IC50) came to 30 nM. Take `COc1ccc(CN(C2CC(C(C)C)CCNC2=O)S(=O)(=O)c2ccc(Cl)cc2)c(F)c1` (stereo not shown) [Example 116, 4-Chloro-N-(2-fluoro-4-methoxy-benzyl)-N-(5-isopropyl-2-oxo-azepan-3-yl)-benzenesulfonamide]: the half-inhibitory concentration (IC50) stood at 140 nM. Same read-out and setting: the same measure for `CC1(C)CCNC(=O)C(N(Cc2ccc(C(=O)O)cc2)S(=O)(=O)c2ccc(Cl)cc2)C1` (stereo not shown) [Example 139, 4-{[(4-Chloro-benzenesulfonyl)-(5,5-dimethyl-2-oxo-azepan-3-yl)-amino]-methyl}-benzoic acid]: 70 nM. Take `COc1ccc(CN([C@@H]2CCCCNC2=O)S(=O)(=O)c2ccc(C(F)(F)F)cc2)c(F)c1F` [Example 166, N-(2,3-Difluoro-4-methoxy-benzyl)-N-((R)-2-oxo-azepan-3-yl)-4-trifluoromethyl-benzenesulfonamide]: the 50% inhibitory concentration (IC50) is 230 nM. As for `Cc1nnc(-c2ccc(CN(C3CC(C(C)C)CCNC3=O)S(=O)(=O)c3ccc(Cl)cc3)cc2)o1` (stereo not shown) [Example 180, 4-Chloro-N-(5-isopropyl-2-oxo-azepan-3-yl)-N-[4-(5-methyl-[1,3,4]oxadiazol-2-yl)-benzyl]-benzenesulfonamide], the half-inhibitory concentration (IC50) is 140 nM. For `Cc1noc(-c2ccc(CN(C3CC(C(C)C)CCNC3=O)S(=O)(=O)c3ccc(Cl)cc3)cc2)n1` (stereo not shown) [Example 181, 4-Chloro-N-(5-isopropyl-2-oxo-azepan-3-yl)-N-[4-(3-methyl-[1,2,4]oxadiazol-5-yl)-benzyl]-benzenesulfonamide], the IC50 turned out to be 270 nM. Regarding `CC1(C)CCNC(=O)[C@H](N(Cc2ccc(C(=O)NC3CC3)cc2)S(=O)(=O)c2ccc(Cl)cc2)C1` [Example 183, 4-{[(4-Chloro-benzenesulfonyl)-((R)-5,5-dimethyl-2-oxo-azepan-3-yl)-amino]-methyl}-N-cyclopropyl-benzamide], the concentration for half-maximal inhibition (IC50) stood at 10 nM. In the case of `COC(=O)c1ccc(CN([C@@H]2CC(C)(C)CCNC2=O)S(=O)(=O)c2ccc(Cl)cc2)c(F)c1` [Example 185, 4-{[(4-Chloro-benzenesulfonyl)-((R)-5,5-dimethyl-2-oxo-azepan-3-yl)-amino]-methyl}-3-fluoro-benzoic acid methyl ester], the 50% inhibitory concentration (IC50) came to 10 nM. Take `COC(=O)CCc1ccc(CN([C@@H]2CC(C)(C)CCNC2=O)S(=O)(=O)c2ccc(Cl)cc2)cc1` [Example 186, 3-(4-{[(4-Chloro-benzenesulfonyl)-((R)-5,5-dimethyl-2-oxo-azepan-3-yl)-amino]-methyl}-phenyl)-propionic acid methyl ester]: the 50% inhibitory concentration (IC50) was determined as 130 nM.

Regarding `CC1(C)CCNC(=O)[C@H](N(Cc2ccc(CCC(=O)O)cc2)S(=O)(=O)c2ccc(Cl)cc2)C1` [Example 187, 3-(4-{[(4-Chloro-benzenesulfonyl)-((R)-5,5-dimethyl-2-oxo-azepan-3-yl)-amino]-methyl}-phenyl)-propionic acid], the IC50 was 10 nM. As for `CC1(C)CCNC(=O)[C@H](N(Cc2ccc(C(=O)O)cc2F)S(=O)(=O)c2ccc(Cl)cc2)C1` [Example 188, 4-{[(4-Chloro-benzenesulfonyl)-((R)-5,5-dimethyl-2-oxo-azepan-3-yl)-amino]-methyl}-3-fluoro-benzoic acid], the IC50 amounted to 30 nM. For `CN(C)NC(=O)c1ccc(CN([C@@H]2CC(C)(C)CCNC2=O)S(=O)(=O)c2ccc(Cl)cc2)c(F)c1` [Example 189, 4-Chloro-N-[4-(N′,N′-dimethyl-hydrazinocarbonyl)-2-fluoro-benzyl]-N-((R)-5,5-dimethyl-2-oxo-azepan-3-yl)-benzenesulfonamide], the concentration for half-maximal inhibition (IC50) stood at 20 nM. As to `CC1(C)CCNC(=O)[C@H](N(Cc2ccc(-c3ccno3)cc2)S(=O)(=O)c2ccc(Cl)cc2)C1` [Example 191, 4-Chloro-N-((R)-5,5-dimethyl-2-oxo-azepan-3-yl)-N-(4-isoxazol-5-yl-benzyl)-benzenesulfonamide], the IC50 came to 60 nM. In the case of `COc1ccc(CN([C@@H]2CC(C)(C)CCNC2=O)S(=O)(=O)c2ccc(Cl)cc2)c(F)c1` [Example 192, 4-Chloro-N-((R)-5,5-dimethyl-2-oxo-azepan-3-yl)-N-(2-fluoro-4-methoxy-benzyl)-benzenesulfonamide], the concentration for half-maximal inhibition (IC50) is 40 nM.

Regarding `CC1(C)CCNC(=O)[C@H](N(Cc2ccc(CO)cc2F)S(=O)(=O)c2ccc(Cl)cc2)C1` [Example 193, 4-Chloro-N-((R)-5,5-dimethyl-2-oxo-azepan-3-yl)-N-(2-fluoro-4-hydroxymethyl-benzyl)-benzenesulfonamide], the 50% inhibitory concentration (IC50) was determined as 20 nM. As for `O=C(O)CCc1ccc(CN(C2CC(C(F)(F)F)CCNC2=O)S(=O)(=O)c2ccc(Cl)cc2)cc1` (stereo not shown) [Example 194, 3-(4-{[(4-Chloro-benzenesulfonyl)-(2-oxo-5-trifluoromethyl-azepan-3-yl)-amino]-methyl}-phenyl)-propionic acid], the IC50 amounted to 130 nM.

For `O=C(O)c1ccc(CN(C2CC(C(F)(F)F)CCNC2=O)S(=O)(=O)c2ccc(Cl)cc2)cc1` (stereo not shown) [Example 195, 4-{[(4-Chloro-benzenesulfonyl)-(2-oxo-5-trifluoromethyl-azepan-3-yl)-amino]-methyl}-benzoic acid], the IC50 was 30 nM. As for `CN(C)NC(=O)c1ccc(CN(C2CC(C(F)(F)F)CCNC2=O)S(=O)(=O)c2ccc(Cl)cc2)cc1` (stereo not shown) [Example 196, 4-Chloro-N-[4-(N′,N′-dimethyl-hydrazinocarbonyl)-benzyl]-N-(2-oxo-5-trifluoromethyl-azepan-3-yl)-benzenesulfonamide], the IC50 worked out at 190 nM. Still for that read-out and setting: the same measure for `COC(=O)c1ccc(CN(C2CC(C(F)(F)F)CCNC2=O)S(=O)(=O)c2ccc(Cl)cc2)c(F)c1` (stereo not shown) [Example 197, 4-{[(4-Chloro-benzenesulfonyl)-(2-oxo-5-trifluoromethyl-azepan-3-yl)-amino]-methyl}-3-fluoro-benzoic acid methyl ester]: 20 nM.

The record behind these values is patent US7253158B2, “Sulfonamides” (Hoffmann-La Roche Inc., priority 2004, dated 2007).
